Test results reported in patent publication US10981892B2, “Acyl sulfonamides that are Bcl family antagonists for use in clinical management of conditions caused or mediated by senescent cells and for treating cancer” (Unity Biotechnology, Inc., priority 2018, dated 2021).
“Also recorded” adds a separate entry of the source.

Assays:
[1] = system: cigarette smoke induced COPD model, 3MR or INK-ATTAC mice; assay: Cigarette smoke (CS) induced COPD model, oxygen saturation; format: in vivo, mouse; conditions: after two months of cigarette smoke exposure, compared with untreated controls
Procedure: As a model for chronic obstructive pulmonary disease (COPD), mice were exposed to cigarette smoke. The effect of a senolytic agent on the mice exposed to smoke is assessed by senescent cell clearance, lung function, and histopathology. The mice used in this study include the 3MR strain, described in US 2017/0027139 A1 and in Demaria et al., Dev Cell. 2014 Dec. 22; 31(6): 722-733. […] The enzyme in the transgene is placed under control of the p16 promoter, which causes it to be specifically expressed in senescent cells. Treatment of the mice with GCV eliminates senescent cells. Other mice used in this study include the […] strain, described in US 2015/0296755 A1 and in Baker et al., Nature 2011 Nov. 2; 479(7372):232-236. The […] mouse has a transgene encoding switchable caspase 8 under control of the p16 promoter. The caspase 8 can be activated by treating the mice with the switch compound AP20187, whereupon the caspase 8 directly induces apoptosis in senescent cells, eliminating them from the mouse. To conduct the experiment, six-week-old 3MR (n=35) or […]=35) mice were chronically exposed to cigarette smoke generated from a Teague TE-10 system, an automatically-controlled cigarette smoking machine that produces a combination of side-stream and mainstream cigarette smoke in a chamber, which is transported to a collecting and mixing chamber where varying amounts of air is mixed with the smoke mixture. The COPD protocol was adapted from the COPD core facility at Johns Hopkins University (Rangasamy et al., 2004, J. Clin. Invest. 114:1248-1259; Yao et al., 2012, J. Clin. Invest. 122:2032-2045). Mice received a total of 6 hours of cigarette smoke exposure per day, 5 days a week for 6 months. Each lighted cigarette (3R4F research cigarettes containing 10.9 mg of total particulate matter (TPM), 9.4 mg of tar, and 0.726 mg of nicotine, and 11.9 mg carbon monoxide per cigarette [University of Kentucky, Lexington, Ky.]) was puffed for 2 seconds and once every minute for a total of 8 puffs, with the flow rate of 1.05 L/min, to provide a standard puff of 35 cm3. The smoke machine was adjusted to produce a mixture of side stream smoke (89%) and mainstream smoke (11%) by smoldering 2 cigarettes at one time. The smoke chamber atmosphere was monitored for total suspended particulates (80-120 mg/m3) and carbon monoxide (350 ppm). […] An equal number of mice received the corresponding vehicle. […] After two months of cigarette smoke (CS) exposure, lung function was assessed by monitoring oxygen saturation using the MouseSTAT PhysioSuiteTM pulse oximeter (Kent Scientific). […] Mice were monitored for 30 seconds and the average peripheral capillary oxygen saturation (SpO2) measurement over this duration was calculated.

[2] = background statement; cited from earlier work
[3] = system: osteoarthritis model, C57BL/6J mice; assay: Osteoarthritis model (ACL surgery), intra-articular injection; format: in vivo, mouse
Procedure: This example illustrates the testing of an MDM2 inhibitor in a mouse model for treatment of osteoarthritis. It can be adapted mutatis mutandis to test and develop Bcl inhibitors for use in clinical therapy.
The model was implemented as follows. C57BL/6J mice underwent surgery to cut the anterior cruciate ligament of one rear limb to induce osteoarthritis in the joint of that limb. During week 3 and week 4 post-surgery, the mice were treated with 5.8 μg of Nutlin-3A (n=7) per operated knee by intra-articular injection, q.o.d. for 2 weeks. At the end of 4 weeks post-surgery, joints of the mice were monitored for presence of senescent cells, assessed for function, monitored for markers of inflammation, and underwent histological assessment.
Two control groups of mice were included in the studies performed: one group comprising C57BL/6J or 3MR mice that had undergone a sham surgery (n=3) (i.e., surgical procedures followed except for cutting the ACL) and intra-articular injections of vehicle parallel to the GCV (ganciclovir) treated group; and one group comprising C57BL/6J or 3MR mice that had undergone an ACL surgery and received intra-articular injections of vehicle (n=5) parallel to the GCV-treated group. RNA from the operated joints of mice from the Nutlin-3A treated mice was analyzed for expression of SASP factors (mmp3, IL-6) and senescence markers (p16). qRT-PCR was performed to detect mRNA levels.
Function of the limbs was assessed 4 weeks post-surgery by a weight bearing test to determine which leg the mice favored. The mice were allowed to acclimate to the chamber on at least three occasions prior to taking measurements. Mice were maneuvered inside the chamber to stand with one hind paw on each scale. The weight that was placed on each hind limb was measured over a three second period. At least three separate measurements were made for each animal at each time point. The results were expressed as the percentage of the weight placed on the operated limb versus the contralateral unoperated limb.

[4] = system: atherosclerosis model, LDLR-/- mice; assay: Atherosclerosis model, LDLR-/- mice fed a high fat diet, systemic administration; format: in vivo, mouse
Procedure: This example illustrates the testing of an MDM2 inhibitor in a mouse model for treatment of atherosclerosis. The test compounds are administered systemically rather than locally. The model is done in an LDLR−/− strain of mice, which are deficient in the receptor for low-density lipoprotein. The experiments described here can be adapted mutatis mutandis to test and develop other types of inhibitors for use in clinical therapy.
Two groups of LDLR−/− mice (10 weeks) are fed a high fat diet (HFD) (Harlan Teklad TD.88137) having 42% calories from fat, beginning at Week 0 and throughout the study. Two groups of LDLR−/− mice (10 weeks) are fed normal chow (−HFD). From weeks 0-2, one group of HFD mice and —HFD mice are treated with Nutlin-3A (25 mg/kg, intraperitoneally). One treatment cycle is 14 days treatment, 14 days off. Vehicle is administered to one group of HFD mice and one group of −HFD mice. At week 4 (timepoint 1), one group of mice are sacrificed and to assess presence of senescent cells in the plaques. For the some of the remaining mice, Nutlin-3A and vehicle administration is repeated from weeks 4-6. At week 8 (timepoint 2), the mice are sacrificed and to assess presence of senescent cells in the plaques. The remaining mice are treated with Nutlin-3A or vehicle from weeks 8-10. At week 12 (timepoint 3), the mice are sacrificed and to assess the level of plaque and the number of senescent cells in the plaques.
Plasma lipid levels were measured in LDLR−/− mice fed a HFD and treated with Nutlin-3A or vehicle at timepoint 1 as compared with mice fed a —HFD (n=3 per group). Plasma was collected mid-afternoon and analyzed for circulating lipids and lipoproteins.
At the end of timepoint 1, LDLR−/− mice fed a HFD and treated with Nutlin-3A or vehicle were sacrificed (n=3, all groups), and the aortic arches were dissected for RT-PCR analysis of SASP factors and senescent cell markers. Values were normalized to GAPDH and expressed as fold-change versus age-matched, vehicle-treated LDLR−/− mice on a normal diet.
At the end of timepoint 2, LDLR−/− mice fed a HFD and treated with Nutlin-3A or vehicle (n=3 for all groups) were sacrificed, and aortic arches were dissected for RT-PCR analysis of SASP factors and senescent cell markers. Values were normalized to GAPDH and expressed as fold-change versus age-matched, vehicle-treated LDLR−/− mice on a normal diet.
At the end of timepoint 3, LDLR−/− mice fed a HFD and treated with Nutlin-3A or vehicle (n=3 for all groups) were sacrificed, and aortas were dissected and stained with Sudan IV to detect the presence of lipid. Body composition of the mice was analyzed by MRI, and circulating blood cells were counted by Hemavet™.

## Nc1nc(O)c2ncn(COC(CO)CO)c2n1 [ganciclovir]
[1]
  SpO2 levels: statistically significant increases

## CC[C@H](C(=O)N1CCCC[C@H]1C(=O)O[C@H](CCc1ccc(OC)c(OC)c1)c1cccc(OCC(=O)NCC(CNC(=O)COc2cccc([C@@H](CCc3ccc(OC)c(OC)c3)OC(=O)[C@@H]3CCCCN3C(=O)[C@@H](CC)c3cc(OC)c(OC)c(OC)c3)c2)CN(C)C)c1)c1cc(OC)c(OC)c(OC)c1 [AP2018]
[1]
  SpO2 levels: statistically significant increases

## CC1(C)CCC(c2ccc(Cl)cc2)=C(CN2CCN(c3ccc(C(=O)NS(=O)(=O)c4ccc(N[C@H](CCN5CCOCC5)CSc5ccccc5)c(S(=O)(=O)C(F)(F)F)c4)cc3)CC2)C1 [ABT-263, Navitoclax]
[1]
  SpO2 levels: statistically significant increases

## CN(C)CC[C@H](CSc1ccccc1)Nc1ccc(S(=O)(=O)NC(=O)c2ccc(N3CCN(Cc4ccccc4-c4ccc(Cl)cc4)CC3)cc2)cc1[N+](=O)[O-] [ABT-737]
[2]
  dose-limiting toxicity in human patients: dose-limiting thrombocytopenia

## COc1ccc(C2=N[C@@H](c3ccc(Cl)cc3)[C@@H](c3ccc(Cl)cc3)N2C(=O)N2CCNC(=O)C2)c(OC(C)C)c1 [Nutlin-3A]
[3]; 5.8 μg per knee intra-articular
  clearance of senescent cells from the joint: cleared senescent cells from the joint
[3]; 4 weeks post-surgery
  weight bearing: favoring of unoperated over operated hind limb: abrogated this effect
[3]; joint tissue after ACL surgery
  histopathology: destruction of the proteoglycan layer: completely abrogated this effect
[3]; operated joint, qRT-PCR, 4 weeks post-surgery, 5.8 μg per knee intra-articular q.o.d. 2 weeks
  expression of p16, IL-6, and MMP13 in the tissue: reduced the expression back to below the level of the controls; also recorded: ameliorated
[1]
  SpO2 levels: statistically significant increases
[4]; HFD, multiple treatment cycles, 25 mg/kg i.p., RT-PCR
  expression of SASP factors and senescent cell markers in aortic arch, timepoint 2: reduced expression of most markers
[4]; HFD, one treatment cycle, 25 mg/kg i.p., MMP3, MMP13, PAI1, p21, IGFBP2, IL-1A, IL-1B, RT-PCR
  expression of SASP factors and senescent cell markers in aortic arch, timepoint 1: reduced expression of several SASP factors and senescent cell markers
[4]; HFD, timepoint 3 (week 12), Sudan IV staining
  reduction of surface area covered by plaques in the descending aorta: about 45%
[4]; mice fed the high fat diet, MRI, timepoint 3
  mass and body fat composition: decreased
[4]; timepoint 3, Hemavet
  platelet and lymphocyte counts versus vehicle treated mice: equivalent
